In ChEMBL document CHEMBL2046363, “Discovery and structure-activity relationship of 2,6-disubstituted pyrazines, potent and selective inhibitors of protein kinase CK2” (Bioorg Med Chem Lett, 2012):
Calls of active or inactive are those of the source. The calls are words filed in the database; no cut-off is given here.

Experiments:
[1] = Inhibition of CK2
[2] = Inhibition of CK2 expressed in HEK293 cells by SRE-luciferase reporter gene assay; assay type: cell-based
[3] = Selectivity ratio of IC50 for p38beta2 to CK2
Rattus norvegicus = assay: Antinephritic activity in anti-GBM glomerulonephritis Wistar-Kyoto rat model assessed as improved proteinuria at 15 mg/kg, ip qd measured at day 7 by pyrogallol Red method; assay type: functional, organism-based; parameters: dose 15 mg/kg
[4] = Selectivity ratio of IC50 for PKC to CK2
[5] = Selectivity ratio of IC50 for CAMK2 to CK2
[6] = Selectivity ratio of IC50 for S6 kinase to CK2
[7] = Selectivity ratio of IC50 for PKA to CK2
[8] = Selectivity ratio of IC50 for ERK to CK2

Row | Compound | IC50 [1] [nM] | IC50 [2] [nM] | also measured
1 | Cc1cc(O)c2c(c1)C(=O)c1cc(O)cc(O)c1C2=O [EMODIN] | 2000 |  | 
2 | O=C(O)Cc1ccn(-c2cncc(-n3ncc4ccccc43)n2)c1 | 30 |  | 
3 | O=C(O)Cc1cn(-c2cncc(-n3cc(CC(=O)O)c4ccccc43)n2)c2ccccc12 | 300 |  | 
4 | O=C(O)Cc1cn(-c2cncc(-n3ccc4ccccc43)n2)c2ccccc12 | 500 |  | 
5 | O=C(O)Cc1ccn(-c2cncc(-n3ccc4ccccc43)n2)c1 | 100 |  | 
6 | O=C(O)Cc1c2ccccc2n2c1[nH]c(=O)c1ccccc12 | 80 |  | 
7 | O=C(O)Cc1ccn(-c2cncc(-n3nc(Cl)c4ccccc43)n2)c1 | 12 | 30000 | 
8 | O=C(O)Cc1ccn(-c2cncc(-n3cnc4ccccc43)n2)c1 | 100 |  | 
9 | Nc1nn(-c2cncc(-n3ccc(CC(=O)O)c3)n2)c2ccccc12 | 8 | 15000 | 
10 | O=C(O)Cc1ccn(-c2cncc(N3CCc4ccccc43)n2)c1 | 50 |  | 
11 | O=C(O)Cc1cn(-c2cncc(-n3cccc3)n2)c2ccccc12 | 3000 |  | 

Continued, in another order:

Row | IC50 [1] [nM] | IC50 [2] [nM] | Compound | also measured
12 | 22 | 11000 | N#Cc1ccc2cnn(-c3cncc(-n4ccc(CC(=O)O)c4)n3)c2c1 | 
13 | 16 | 4000 | O=C(O)Cc1ccn(-c2cncc(-n3ncc4ccc(Cl)cc43)n2)c1 | 
14 | 8 | 1000 | CC(C)Nc1ccc2cnn(-c3cncc(-n4ccc(CC(=O)O)c4)n3)c2c1 | 
15 | 25 |  | Nc1ccc2cnn(-c3cncc(-n4ccc(CC(=O)O)c4)n3)c2c1 | 
16 | 9.3 | 900 | O=C(O)Cc1ccn(-c2cncc(-n3ncc4ccc(NC5CCCC5)cc43)n2)c1 | Ratio IC50 [3]: > 740; Activity (Rattus norvegicus): Active; Ratio IC50 [4]: > 740; Ratio IC50 [5]: 162; Ratio IC50 [6]: 626; Ratio IC50 [7]: > 740; Ratio IC50 [8]: > 740
